The values below come from paper PMC10506422 (Biomedicine & pharmacotherapy = Biomedecine & …, 2022).

This data set addresses T1, ABCG2 (Homo sapiens, UniProt Q9UNQ0).
T1 sequence (Q9UNQ0 1-655): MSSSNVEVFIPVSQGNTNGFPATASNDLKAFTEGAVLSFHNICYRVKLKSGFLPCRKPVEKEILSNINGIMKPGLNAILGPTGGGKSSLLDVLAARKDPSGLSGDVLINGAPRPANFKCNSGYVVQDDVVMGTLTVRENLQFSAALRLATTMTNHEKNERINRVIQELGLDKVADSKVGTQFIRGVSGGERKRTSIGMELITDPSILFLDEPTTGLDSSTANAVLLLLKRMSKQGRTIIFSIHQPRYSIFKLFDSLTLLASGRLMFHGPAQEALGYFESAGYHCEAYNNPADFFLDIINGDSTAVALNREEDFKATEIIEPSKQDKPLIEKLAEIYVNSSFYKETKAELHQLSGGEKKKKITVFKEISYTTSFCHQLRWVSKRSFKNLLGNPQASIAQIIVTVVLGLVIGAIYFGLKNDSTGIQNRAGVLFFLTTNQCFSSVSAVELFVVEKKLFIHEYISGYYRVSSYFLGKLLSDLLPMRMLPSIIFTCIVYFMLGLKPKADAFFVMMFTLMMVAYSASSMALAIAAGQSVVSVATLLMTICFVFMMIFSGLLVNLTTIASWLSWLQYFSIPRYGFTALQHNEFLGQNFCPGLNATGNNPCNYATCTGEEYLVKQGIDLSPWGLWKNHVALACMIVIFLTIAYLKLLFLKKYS
The experiment in a line: fluorescent substrate efflux/accumulation by flow cytometry. Type of data set: cell-based. A general note: In flow cytometry, cells or beads pass a laser one at a time.

Take `C=Cc1c(C)c2cc3nc(c4c5[nH]c(cc6nc(cc1[nH]2)C(C)=C6CC)c(C)c5C(=O)[C@@H]4C(=O)OC)[C@@H](CCC(=O)O)[C@@H]3C` [pheophorbide A]: the “fluorescent substrate efflux/accumulation by flow cytometry (1 μM PhA)” value is given as “The intracellular accumulation of pheophorbide A (PhA), a known fluorescent substrate drug of ABCG2, was determined”.
